The target in assay [1] is Peptidyl-prolyl cis-trans isomerase FKBP1A (Homo sapiens, UniProt P62942). The experiment in a line: Binding affinity to human FKBP12 FK1 domain incubated for 30 mins using fluorescein-conjugated 2-(5-((2-(3-((R)-3-(3,4-dimethoxyphenyl)-1-((S)-1-(3,3-dimethyl-2-oxopentanoyl)piperidine-2-carbonyloxy)propyl)phenoxy)acetamido)methyl)-6-hydroxy-3-oxo-3H-xanthen-9-yl)benzoic acid by competitive fluorescence polarization assay. In general terms: Polarisation of emitted light reports the rotation of a fluorescent probe.

In assay [2] the target is T1, Peptidyl-prolyl cis-trans isomerase FKBP5 (Homo sapiens, UniProt Q13451).
T1 sequence (Q13451 whole entry): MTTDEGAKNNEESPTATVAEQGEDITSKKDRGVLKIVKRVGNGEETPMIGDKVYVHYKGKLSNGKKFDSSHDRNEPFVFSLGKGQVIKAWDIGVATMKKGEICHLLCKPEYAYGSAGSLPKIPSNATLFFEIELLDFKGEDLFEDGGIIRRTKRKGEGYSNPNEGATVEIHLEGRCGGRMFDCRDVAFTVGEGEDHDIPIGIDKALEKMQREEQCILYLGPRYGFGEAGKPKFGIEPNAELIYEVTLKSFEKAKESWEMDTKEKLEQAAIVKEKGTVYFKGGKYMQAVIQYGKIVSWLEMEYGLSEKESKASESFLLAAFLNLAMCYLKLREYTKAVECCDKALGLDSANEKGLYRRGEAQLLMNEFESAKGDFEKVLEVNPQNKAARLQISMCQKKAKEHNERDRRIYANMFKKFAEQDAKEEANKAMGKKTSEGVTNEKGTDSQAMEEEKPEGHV
As to the kind of experiment: Binding affinity to FKBP51 FK506-binding domain (1 to 140 amino acids) (unknown origin) incubated for 30 mins using fluorescein-conjugated 2-(5-((2-(3-((R)-3-(3,4-dimethoxyphenyl)-1-((S)-1-(3,3-dimethyl-2-oxopentanoyl)piperidine-2-carbonyloxy)propyl)phenoxy)acetamido)methyl)-6-hydroxy-3-oxo-3H-xanthen-9-yl)benzoic acid by competitive fluorescence polarization assay.

Assay [3] deals with T2, Peptidyl-prolyl cis-trans isomerase FKBP4 (Homo sapiens) (UniProt Q02790).
T2 sequence (whole entry): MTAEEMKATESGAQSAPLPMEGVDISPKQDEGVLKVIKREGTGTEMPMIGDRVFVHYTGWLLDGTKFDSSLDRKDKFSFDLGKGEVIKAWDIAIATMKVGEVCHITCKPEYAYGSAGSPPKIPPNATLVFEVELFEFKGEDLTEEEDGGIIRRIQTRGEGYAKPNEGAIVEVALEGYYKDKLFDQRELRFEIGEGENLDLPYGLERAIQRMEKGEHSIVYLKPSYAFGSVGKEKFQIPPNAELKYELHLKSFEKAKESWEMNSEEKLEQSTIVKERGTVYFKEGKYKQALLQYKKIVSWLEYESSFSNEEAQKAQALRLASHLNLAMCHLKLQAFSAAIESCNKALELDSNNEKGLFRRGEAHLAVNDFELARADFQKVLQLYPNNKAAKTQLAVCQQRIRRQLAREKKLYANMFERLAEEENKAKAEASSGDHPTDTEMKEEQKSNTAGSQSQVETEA
As to the kind of experiment: Binding affinity to FKBP52 (1 to 140 amino acids) (unknown origin) up to 500 uM incubated for 30 mins using fluorescein-conjugated 2-(5-((2-(3-((R)-3-(3,4-dimethoxyphenyl)-1-((S)-1-(3,3-dimethyl-2-oxopentanoyl)piperidine-2-carbonyloxy)propyl)phenoxy)acetamido)methyl)-6-hydroxy-3-oxo-3H-xanthen-9-yl)benzoic acid by competitive fluorescence polarization assay.

The target in assay [4] is T1, Peptidyl-prolyl cis-trans isomerase FKBP5.
Description: Binding affinity to FKBP51 (unknown origin) by competitive fluorescence polarization assay

Calls of active or inactive are those of the source. The calls are words filed in the database; no cut-off is given here. Some results are limits rather than exact numbers.

Peptidyl-prolyl cis-trans isomerase FKBP1A, sequence (P62942 whole entry, the tested form may be a part): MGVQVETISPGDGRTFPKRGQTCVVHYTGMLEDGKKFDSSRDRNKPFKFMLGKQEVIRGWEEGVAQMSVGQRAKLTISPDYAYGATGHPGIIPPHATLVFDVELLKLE

Consider `COc1cc([C@@H](C(=O)N2CCCC[C@H]2C(=O)N[C@@H](CCO)C(N)=O)C2CCCCC2)cc(OC)c1OC`, for which the Ki – broadly, a measure of affinity in units of concentration, obtained from inhibition or displacement – in assay [1] was found to be 317 µM.
Consider `COc1cc([C@@H](C(=O)N2CCCC[C@H]2C(=O)N[C@@H](CCc2ccccc2)C(N)=O)C2CCCCC2)cc(OC)c1OC`, for which the Ki in assay [2] is 9.1 µM; in assay [1], 30.1 µM.
On the same counts, the results for `COc1cc([C@@H](C(=O)N2CCCC[C@H]2C(=O)NCCC(N)=O)C2CCCCC2)cc(OC)c1OC` are 5.6 µM and 49.2 µM.
In the same order, the values of `COc1cc([C@@H](C(=O)N2CCCC[C@H]2C(=O)N[C@H](C(N)=O)C(C)C)C2CCCCC2)cc(OC)c1OC` are 12.6 µM and 11.5 µM.
In the same order, the values of `COc1cc([C@@H](C(=O)N2CCCC[C@H]2C(=O)NCC(N)=O)C2CCCCC2)cc(OC)c1OC` are 36.7 µM and more than 300 µM.
As for `COc1cc([C@@H](C(=O)N2CCCC[C@H]2C(=O)NC2(C(N)=O)CCC2)C2CCCCC2)cc(OC)c1OC`, the Ki was determined as 4.9 µM in assay [2] and 23.4 µM in assay [1].
Regarding `COc1cc([C@@H](C(=O)N2CCCC[C@H]2C(=O)N[C@@H](Cc2ccccc2)C(N)=O)C2CCCCC2)cc(OC)c1OC`, the results for the Ki in assay [2] and in assay [1] were 6.5 µM and 10.9 µM, respectively.
On the same counts, the results for `COc1cc([C@@H](C(=O)N2CCCC[C@H]2C(=O)NCCCC(N)=O)C2CCCCC2)cc(OC)c1OC` are 5.7 µM and 22.3 µM.
In the same order, the values of `CC[C@H](NC(=O)[C@@H]1CCCCN1C(=O)[C@H](c1cc(OC)c(OC)c(OC)c1)C1CCCCC1)C(N)=O` are 3.6 µM and 51.9 µM.
`COc1cc([C@@H](C(=O)N2CCCC[C@H]2C(=O)NC2(C(N)=O)CCCC2)C2CCCCC2)cc(OC)c1OC`: the figures for the inhibition constant (Ki) in assay [2] and in assay [1] were 0.14 µM and 3.8 µM, respectively. Further, the inhibition result in assay [3] was “inactive”.
For the compound `COc1cc([C@@H](C(=O)N2CCCC[C@H]2C(=O)NC2(C(N)=O)CC2)C2CCCCC2)cc(OC)c1OC`, the Ki was found to be 19.5 µM in assay [2] and 50.3 µM in assay [1].
Turning to `COc1cc([C@@H](C(=O)N2CCCC[C@H]2C(=O)N[C@@H](CO)C(N)=O)C2CCCCC2)cc(OC)c1OC`, the inhibition constant (Ki) in assay [2] stood at 62.9 µM.
As to `COc1cc([C@@H](C(=O)N2CCCC[C@H]2C(=O)N[C@H](Cc2ccccc2)C(N)=O)C2CCCCC2)cc(OC)c1OC`, the figures for the Ki in assay [2] and in assay [1] were 1.4 µM and 5.6 µM, respectively.
In the same order, the values of `COc1cc([C@@H](C(=O)N2CCCC[C@H]2C(=O)NC(C)(C)CC(N)=O)C2CCCCC2)cc(OC)c1OC` are 3.8 µM and 3.2 µM.
On the same counts, the results for `COc1cc([C@@H](C(=O)N2CCCC[C@H]2C(=O)N[C@@H](C)C(N)=O)C2CCCCC2)cc(OC)c1OC` are 17.1 µM and 30.7 µM.
As for `CCNC(=O)[C@@H]1CCCCN1C(=O)[C@H](c1cc(OC)c(OC)c(OC)c1)C1CCCCC1`, the Ki in assay [2] is 55 µM.
On to `COc1cc([C@@H](C(=O)N2CCCC[C@H]2C(=O)N[C@@H](CCC2CCCCC2)C(N)=O)C2CCCCC2)cc(OC)c1OC`, for which the Ki in assay [2] stood at 12 µM; in assay [1] it was 22.5 µM.
On the same counts, the results for `COc1cc([C@@H](C(=O)N2CCCC[C@H]2C(=O)N[C@H](C(N)=O)C2CCCCC2)C2CCCCC2)cc(OC)c1OC` are 4.3 µM and 12.8 µM.
On the same counts, the results for `COc1cc([C@@H](C(=O)N2CCCC[C@H]2C(=O)NCCCCC(N)=O)C2CCCCC2)cc(OC)c1OC` are 3.9 µM and 4.2 µM.
In the same order, the values of `COc1cc([C@@H](C(=O)N2CCCC[C@H]2C(=O)N[C@@H](CC2CCCCC2)C(N)=O)C2CCCCC2)cc(OC)c1OC` are 17.8 µM and 6.6 µM.
Regarding `COc1cc([C@@H](C(=O)N2CCCC[C@H]2C(=O)NC2(C(N)=O)CCOCC2)C2CCCCC2)cc(OC)c1OC`, the Ki in assay [2] came out at 1.8 µM; in assay [1], 3 µM.
In the same order, the values of `COc1cc([C@@H](C(=O)N2CCCC[C@H]2C(=O)N[C@H](CO)C(N)=O)C2CCCCC2)cc(OC)c1OC` are 2.8 µM and 46.9 µM.
In turn, `COc1ccc(CC[C@@H](NC(=O)[C@@H]2CCCCN2C(=O)[C@H](c2cc(OC)c(OC)c(OC)c2)C2CCCCC2)c2cccc(OCC(=O)O)c2)cc1OC` came in with a Ki in assay [2] of 0.043 µM.
Regarding `COc1cc([C@@H](C(=O)N2CCCC[C@H]2C(=O)N[C@H](C)C(N)=O)C2CCCCC2)cc(OC)c1OC`, the results for the Ki in assay [2] and in assay [1] were 10 µM and 71.1 µM, respectively.
In the same order, the values of `COc1cc([C@@H](C(=O)N2CCCC[C@H]2C(=O)N[C@@H](Cc2cnc[nH]2)C(N)=O)C2CCCCC2)cc(OC)c1OC` are 13.4 µM and 101 µM.
`COc1cc([C@@H](C(=O)N2CCCC[C@H]2C(=O)N[C@@H](C(N)=O)c2ccccc2)C2CCCCC2)cc(OC)c1OC` had a Ki in assay [1] of 12.4 µM.
`COc1cc([C@@H](C(=O)N2CCCC[C@H]2C(=O)N[C@@H](CCC(N)=O)C(N)=O)C2CCCCC2)cc(OC)c1OC`: the Ki in assay [2] was found to be 345 µM.
On to `COc1cc([C@@H](C(=O)N2CCCC[C@H]2C(=O)N[C@H](Cc2cnc[nH]2)C(N)=O)C2CCCCC2)cc(OC)c1OC`, for which the Ki in assay [2] worked out at 3.8 µM; in assay [1] it was 26.9 µM.
On the same counts, the results for `COc1cc([C@@H](C(=O)N2CCCC[C@H]2C(=O)N[C@@H](C(N)=O)C(C)C)C2CCCCC2)cc(OC)c1OC` are 5 µM and 39.7 µM.
Consider `C=CC[C@@H]1/C=C(\C)C[C@H](C)C[C@H](OC)[C@H]2O[C@@](O)(C(=O)C(=O)N3CCCC[C@H]3C(=O)O[C@H](/C(C)=C/[C@@H]3CC[C@@H](O)[C@H](OC)C3)[C@H](C)[C@@H](O)CC1=O)[C@H](C)C[C@@H]2OC` [TACROLIMUS ANHYDROUS], for which, in assay [4], affinity was put at a Ki of 0.079 µM.
For `COc1cc([C@@H](C(=O)N2CCCC[C@H]2C(=O)NC(C)(C)C(N)=O)C2CCCCC2)cc(OC)c1OC`, the Ki was found to be 2.2 µM in assay [2] and 25.1 µM in assay [1].
In the same order, the values of `CC[C@H](C)[C@H](NC(=O)[C@@H]1CCCCN1C(=O)[C@H](c1cc(OC)c(OC)c(OC)c1)C1CCCCC1)C(N)=O` are 7.1 µM and 12.1 µM.
In the same order, the values of `COc1cc([C@@H](C(=O)N2CCCC[C@H]2C(=O)N[C@H](CCC(N)=O)C(N)=O)C2CCCCC2)cc(OC)c1OC` are 3.4 µM and 120 µM.
For the compound `CC[C@@H](NC(=O)[C@@H]1CCCCN1C(=O)[C@H](c1cc(OC)c(OC)c(OC)c1)C1CCCCC1)C(N)=O`, the figures for the Ki in assay [2] and in assay [1] were 4.5 µM and 6 µM, respectively.
On the same counts, the results for `CC[C@@H](C)[C@@H](NC(=O)[C@@H]1CCCCN1C(=O)[C@H](c1cc(OC)c(OC)c(OC)c1)C1CCCCC1)C(N)=O` are 3.2 µM and 8.7 µM.
With `COc1cc([C@@H](C(=O)N2CCCC[C@H]2C(=O)N[C@H](CCO)C(N)=O)C2CCCCC2)cc(OC)c1OC`, the affinity in assay [1] corresponds to a Ki of 1.2 µM.
As for `COc1cc([C@@H](C(=O)N2CCCC[C@H]2C(=O)NC2(C(N)=O)CCCCC2)C2CCCCC2)cc(OC)c1OC`, the Ki in assay [2] came out at 1.9 µM; in assay [1], 4.3 µM.
On the same counts, the results for `COc1cc([C@@H](C(=O)N2CCCC[C@H]2C(=O)N[C@@H](CC(C)C)C(N)=O)C2CCCCC2)cc(OC)c1OC` are 8.7 µM and 6.6 µM.
On the same counts, the results for `COc1cc([C@@H](C(=O)N2CCCC[C@H]2C(=O)NC2(C(=O)NCC(N)=O)CCCC2)C2CCCCC2)cc(OC)c1OC` are 0.8 µM and 2 µM.
Take `COc1cc([C@@H](C(=O)N2CCCC[C@H]2C(=O)N[C@H](C(N)=O)c2ccccc2)C2CCCCC2)cc(OC)c1OC`: the Ki in assay [1] came out at 7.5 µM.

The values above are taken from ChEMBL document CHEMBL3792318, “Rapid, Structure-Based Exploration of Pipecolic Acid Amides as Novel Selective Antagonists of the FK506-Binding Protein 51” (J Med Chem, 2016).
